{"source": "patent US12258339B2", "about": "“Macrocyclic complexes of alpha-emitting radionuclides and their use in targeted radiotherapy of cancer” (Cornell University, priority 2018, dated 2025)", "key": {"[1]": {"assay": "Kinetic inertness of [^225Ac(macropa)]^+: challenge with 50-fold excess La^3+", "type": "physicochemical", "details": "50-fold excess of La^3+, macropa 0.59 μM, RT, over 7 days", "protocol": "General. Stock solutions of La(NO3)3 (0.001 M or 0.1 M) were prepared in H2O. To the radiolabeled samples containing macropa (10 μL of 10^−5 M stock; 1.0×10^−10 moles) or DOTA (10 μL of 10^−3 M stock; 1.0×10^−8 moles) and ^225Ac (10 μL, 26 kBq) in NH4OAc buffer (pH 6, 0.15 M, 150 μL), a 50-fold mole excess of La^3+ was added (5 μL, of 0.001 M or 0.1 M stock were added to solutions containing macropa and DOTA, respectively). The solutions were kept at room temperature and analyzed by iTLC at several time points over the course of 8 days. The iTLC plates were developed using citric acid (0.05 M, pH 5) as the eluent. Under these conditions, [^225Ac(macropa)]^+ and [^225Ac(DOTA)]^− remained at the baseline (RF=0) and any unchelated ^225Ac (^225Ac-citrate) migrated with the solvent front (RF=1). Percent of complex remaining intact was calculated by integrating area under the peaks on the radiochromatogram and dividing the counts associated with the ^225Ac-complex (RF=0) by the total counts integrated along the length of the iTLC plate.\n(§1) The long half-life of ^225Ac necessitates its stable complex retention in vivo to avoid off-target damage to normal tissues arising from the release of free ^225Ac^3+. Furthermore, the stability of ^225Ac complexes against transmetalation and transchelation needs to be high. […]"}, "[2]": {"assay": "Stability of [^225Ac(macropa)]^+ in human serum", "type": "in vitro ADME", "details": "radio-TLC", "protocol": "[…]. [^225Ac(macropa)]^+ and [^225Ac(DOTA)]^− were prepared using 10^−5 M and 10^−3 M stock solutions (10 μL) of macropa and DOTA, respectively, to give final ligand concentrations of 5.9×10^−7 M (macropa) and 5.9×10^−5 M (DOTA). After confirming a radiochemical yield of >90% by TLC using 0.4 M sodium citrate (pH 4) containing 10% MeOH as the mobile phase, 160 μL of human serum (an equal volume based on labeling reaction volume) were added to each radiolabeled solution. A control solution was also prepared in which water was substituted for ligand. The solutions were monitored over the course of 8 days by iTLC. The plates were developed with EDTA (50 mM, pH 5) as the eluent. Under these conditions, [^225Ac(macropa)]^+ and [^225Ac(DOTA)]^− complexes remained at the baseline (RF=0) and any ^225Ac (^225Ac-EDTA) that had been transchelated by serum migrated with the solvent front (RF=1). Percent of complex remaining intact was calculated.\nas §1, with “high. To determine the kinetic inertness, [^225Ac(macropa)]^+ was challenged with La^3+ because of the established high affinity of macropa for this metal ion.” for “high.”"}}, "data": [{"smiles": "O=C([O-])c1cccc(CN2CCOCCOCCN(Cc3cccc(C(=O)[O-])n3)CCOCCOCC2)n1.[225Ac+3]", "note": "[[^225Ac(macropa)]^+]", "values": [{"measurement": "^225Ac complex remained intact by radio-TLC", "setting": "[1]", "value": 98, "unit": "%"}, {"measurement": "time ^225Ac^3+ remains complexed in human serum", "setting": "[2]", "value": "at least 8 days"}]}]}
